Some results are limits rather than exact numbers.

Chain of IDH1-R132C homodimer enzyme (O75874 whole entry R132C): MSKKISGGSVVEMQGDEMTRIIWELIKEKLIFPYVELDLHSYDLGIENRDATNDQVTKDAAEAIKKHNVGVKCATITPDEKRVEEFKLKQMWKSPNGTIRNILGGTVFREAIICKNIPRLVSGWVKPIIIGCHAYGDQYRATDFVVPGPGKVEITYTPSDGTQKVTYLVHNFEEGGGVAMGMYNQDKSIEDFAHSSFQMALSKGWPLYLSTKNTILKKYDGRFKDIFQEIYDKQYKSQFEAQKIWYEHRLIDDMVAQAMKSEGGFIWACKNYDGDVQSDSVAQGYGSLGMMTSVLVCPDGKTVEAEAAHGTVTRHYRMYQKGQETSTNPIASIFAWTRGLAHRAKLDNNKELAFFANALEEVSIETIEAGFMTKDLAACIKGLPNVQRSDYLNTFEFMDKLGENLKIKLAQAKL

The assay has as its target IDH1-R132C homodimer enzyme (Homo sapiens (Human), UniProt O75874, R132C). Briefly: In vitro assay IDH1-R132C homodimer, NADPH depletion assay with NADPH/NADP preincubation. The conditions noted are these: 5 uM NADPH and 28.75 uM NADP, read-out: IDH R132C NADPH/NADP IC50. The format is biochemical. The procedure:
The following describes the experimental procedures that can be used to obtain data on columns 3 and 5 of Table 5.
A test compound is prepared as 10 mM stock in DMSO and diluted to 50× final concentration in DMSO, for a 50 μl reaction mixture. IDH enzyme activity converting alpha-ketoglutarate to 2-hydroxyglutaric acid is measured using a NADPH depletion assay. In the assay the remaining cofactor is measured at the end of the reaction with the addition of a catalytic excess of diaphorase and resazurin, to generate a fluorescent signal in proportion to the amount of NADPH remaining. […] The reaction is started with the addition of 10 μl of Substrate Mix ([…], 5 mM alpha-ketoglutarate, in Assay Buffer) and the mixture is incubated for 60 minutes at room temperature.
The concentration of alpha-ketoglutarate in the Substrate Buffer is 1 mM.
Turning to `Fc1cc(F)cc(Nc2nc(NC3CC(F)(F)C3)nc(-n3ccc(C(F)(F)F)n3)n2)c1` [Compound 106], the IC50 is less than 50 nM.
With `N#CC1(c2cc(Nc3nc(NC4CCC(F)(F)CC4)nc(-c4cccc(C(F)(F)F)n4)n3)ccn2)CC1` [Compound 189] the figure was 100 to 1000 nM; with `N#CC1(c2cc(Nc3nc(NC4CC(F)(F)C4)nc(-c4cccc(C(F)(F)F)n4)n3)ccn2)CC1` [Compound 168], 50 to 100 nM; with `N#CC1(c2cc(Nc3nc(NC4CC(F)(F)C4)nc(-c4cncc(C(F)(F)F)n4)n3)ccn2)CC1` [Compound 401], 100 to 1000 nM.
`FC1(F)CCC(Nc2nc(NC3CCC(F)(F)CC3)nc(-c3cncc(C(F)(F)F)n3)n2)CC1` [Compound 160]: the IC50 is 100 to 1000 nM.
With `FC1(F)CC(Nc2nc(NC3CC(F)(F)C3)nc(-c3cncc(C(F)(F)F)n3)n2)C1` [Compound 161] the figure was 50 to 100 nM; with `FC1(F)CC[C@H](Nc2nc(Nc3ccnc(C(F)(F)F)c3)nc(-c3cncc(C(F)(F)F)n3)n2)C1` [Compound 391], 100 to 1000 nM; with `FC1(F)CCC(Nc2nc(Nc3ccnc(C(F)(F)F)c3)nc(-c3cncc(C(F)(F)F)n3)n2)CC1` [Compound 389], 100 to 1000 nM.

The values above are taken from patent US10028961B2, “Therapeutically active compounds and their methods of use” (AGIOS PHARMACEUTICALS, INC., priority 2013, dated 2018).
